From patent publication US20240309003A1, “HETEROCYCLIC COMPOUNDS AS TRIGGERING RECEPTOR EXPRESSED ON MYELOID CELLS 2 AGONISTS AND METHODS OF USE” (Vigil Neuroscience, Inc., priority 2021, published 2024)

target: T1, human TREM2 (Homo sapiens, UniProt Q9NZC2); test: TREM2 agonist potency by cellular phosphorylation of Syk (AlphaLisa) in HEK293T-hTREM2 cells; format: cell-based; conditions: HEK293 cells expressing human TREM2 and DAP12, Table D
T1 construct: expressed in transfected cells; host or cells: HEK293T
T1 sequence (Q9NZC2 19-230): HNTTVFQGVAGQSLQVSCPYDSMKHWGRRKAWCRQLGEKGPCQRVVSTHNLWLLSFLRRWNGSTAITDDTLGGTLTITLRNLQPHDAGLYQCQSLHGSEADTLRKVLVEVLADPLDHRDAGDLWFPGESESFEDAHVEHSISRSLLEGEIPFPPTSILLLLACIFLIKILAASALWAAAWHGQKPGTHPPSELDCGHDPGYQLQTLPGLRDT
T1 sequence (O43914 22-113 partner): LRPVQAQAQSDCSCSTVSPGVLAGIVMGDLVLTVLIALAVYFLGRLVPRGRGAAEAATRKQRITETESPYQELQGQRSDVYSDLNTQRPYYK
Method: In Vitro Measurement of Triggering Receptor Expressed on Myeloid Cells 2 Activity Using Cellular Phosphorylation of Spleen Tyrosine Kinase (“Syk”) Assays
Measurement of TREM2 agonist potency was done using a HEK cell line expressing human TREM2 and DAP12 (HEK293T-hTREM2 cells). Binding of small molecules to, and activation of, TREM2 increases the phosphorylation of Syk. The resultant levels of Syk phosphorylation are measured using a commercial AlphaLisa reagent kit. To perform the assay, HEK-hTREM2 cells were plated at 14,000 cells per well in a 384 well plate, in 25 μL of complete growth media and incubated at 37° C., 5% CO2 for 20-24 hours.
Prior to the assay, test compounds were diluted in the 384 well plates in assay buffer and allowed to equilibrate for 30 minutes. Growth media was removed from cell plates by inversion on blotting paper, and 25 μL of test articles in assay buffer was added to cells. Cells were incubated for 45 minutes at room temperature. After 45 minutes, assay buffer was removed and 10 μL of lysis buffer was added. Plates were shaken for 20 minutes at 350 RPM at room temperature. After complete lysis, AlphaLisa reagents were added to the lysate, and fluourescence intensity was measured using a Perkin Elmer Envision plate reader. Intensities were used to generate a standard curve, and % activation was calculated. Curve fitting was performed using Prism v9 software, log(agonist) vs response-variable slope (four parameters), and EC50s were calculated from the curve fit.
This assay may be used to test any of the compounds described herein to assess and characterize a compound's ability to act as an agonist of TREM2.

For [2H]C1([2H])C[C@@H](c2nc(-c3ccc(Cl)cc3F)c3nc(C)c(C)nc3n2)C[C@@]([2H])(c2cnn(C3CC3)c2)O1 [Example 193, 4-(4-chloro-2-fluorophenyl)-2-((2S,4R)-2-(1-cyclopropyl-1H-pyrazol-4-yl)tetrahydro-2H-pyran-4-yl-2,6,6-d3)-6,7-dimethylpteridine], which EC50 is on record?
The EC50 was 50 to 500 nM.

With Cc1cc([C@@H]2C[C@H](c3nc(-c4ccc(Cl)c(F)c4F)c4ncc(C)nc4n3)CCO2)ccn1 [Example 131, 4-(4-chloro-2,3-difluorophenyl)-7-methyl-2-((2S,4R)-2-(2-methylpyridin-4-yl)tetrahydro-2H-pyran-4-yl)pteridine] as the compound, how does the EC50 read?
The EC50 was 500 to 3000 nM.

Cc1cc([C@H]2C[C@@H](c3nc(-c4cc(F)c(Cl)c(F)c4)c4nc(C)c(C)nc4n3)CCO2)ccn1 [Example 133, 4-(4-chloro-3,5-difluorophenyl)-6,7-dimethyl-2-((2R,4S)-2-(2-methylpyridin-4-yl)tetrahydro-2H-pyran-4-yl)pteridine] was tested. Which EC50 did it give?
Its EC50 is < 50 nM.

For [2H]C([2H])([2H])c1nc2nc([C@@H]3CCO[C@H](c4ccnc(C)c4)C3)nc(-c3ccc(Cl)c(F)c3F)c2nc1C([2H])([2H])[2H] [Example 136, 4-(4-chloro-2,3-difluorophenyl)-6,7-bis(methyl-d3)-2-((2S,4R)-2-(2-methylpyridin-4-yl)tetrahydro-2H-pyran-4-yl)pteridine], which EC50 is on record?
Its EC50 is < 50 nM.

How did the EC50 turn out when Cc1cnc2c(C34CC(C(F)(F)F)(C3)C4)nc(N3C[C@@H](C)O[C@@H](c4cnn(C5CC5)c4)C3)nc2n1 [Example 126, (2S,6R)-2-(1-cyclopropyl-1H-pyrazol-4-yl)-6-methyl-4-(7-methyl-4-(3-(trifluoromethyl)bicyclo[1.1.1]pentan-1-yl)pteridin-2-yl)morpholine] was run?
The EC50 was < 50 nM.

For Cc1cc([C@@H]2C[C@H](c3nc(-c4cc(F)c(Cl)c(F)c4)c4nc(C)c(C)nc4n3)CCO2)ccn1 [Example 132, 4-(4-chloro-3,5-difluorophenyl)-6,7-dimethyl-2-((2S,4R)-2-(2-methylpyridin-4-yl)tetrahydro-2H-pyran-4-yl)pteridine], which EC50 is on record?
Its EC50 is 3000 to 100000 nM.

Cc1cnc2c(-c3ccc(Cl)cc3F)nc([C@H]3C[C@@H](C)O[C@@H](c4cnn(C5CC5)c4)C3)nc2n1 [Example 129, 4-(4-chloro-2-fluorophenyl)-2-((2R,4S,6R)-2-(1-cyclopropyl-1H-pyrazol-4-yl)-6-methyltetrahydro-2H-pyran-4-yl)-7-methylpteridine] was tested. Which EC50 did it give?
Its EC50 is 50 to 500 nM.

Which EC50 does the source give for Cc1nc2cc([C@@H]3CCO[C@H](c4cnn(C5CC5)c4)C3)cc(-c3ccc(Cl)cc3F)c2nc1C [Example 227, 5-(4-chloro-2-fluorophenyl)-7-((2S,4R)-2-(1-cyclopropyl-1H-pyrazol-4-yl)tetrahydro-2H-pyran-4-yl)-2,3-dimethylquinoxaline] here?
The EC50 was 500 to 3000 nM.

With COc1cccc([C@@H]2C[C@H](c3nc(-c4ccc(F)cc4F)c4nc(C)c(C)nc4n3)CCO2)n1 [Example 164, 4-(2,4-difluorophenyl)-2-((2S,4R)-2-(6-methoxypyridin-2-yl)tetrahydro-2H-pyran-4-yl)-6,7-dimethylpteridine] as the compound, how does the EC50 read?
Its EC50 is 500 to 3000 nM.

For Cc1nc2nc([C@H]3CCO[C@@H](c4cnn(C5CC5)c4)C3)nc(-c3cc(F)c(F)cc3F)c2nc1C [Example 153, 2-((2R,4S)-2-(1-cyclopropyl-1H-pyrazol-4-yl)tetrahydro-2H-pyran-4-yl)-6,7-dimethyl-4-(2,4,5-trifluorophenyl)pteridine], which EC50 is on record?
Its EC50 is < 50 nM.

Which EC50 does the source give for [2H][C@@]1(c2cnn(C3CC3)c2)C[C@H](c2nc(-c3ccc(F)cc3F)c3nc(C)c(C)nc3n2)CCO1 (single isomer, unassigned) [Example 183] here?
Its EC50 is 3000 to 100000 nM.

[2H]C([2H])([2H])c1nc2nc([C@H]3CCO[C@@H](c4cnn(C5CC5)c4)C3)nc(-c3ccc(Cl)cc3F)c2nc1C([2H])([2H])[2H] [Example 181, 4-(4-chloro-2-fluorophenyl)-2-((2R,4S)-2-(1-cyclopropyl-1H-pyrazol-4-yl)tetrahydro-2H-pyran-4-yl)-6,7-bis(methyl-d3)pteridine] was tested. Which EC50 did it give?
Its EC50 is < 50 nM.

With Cc1cc([C@@H]2C[C@H](c3cc(-c4ccc(Cl)c(F)c4F)c4cc(C)c(C)nc4n3)CCO2)ccn1 [Example 187, 5-(4-chloro-2,3-difluorophenyl)-2,3-dimethyl-7-((2S,4R)-2-(2-methylpyridin-4-yl)tetrahydro-2H-pyran-4-yl)-1,8-naphthyridine] as the compound, how does the EC50 read?
Its EC50 is < 50 nM.

[2H][C@]1(c2cnn(C3CC3)c2)C[C@@H](c2nc(-c3ccc(F)cc3F)c3nc(C)c(C)nc3n2)CCO1 [Example 182, 2-((2R,4S)-2-(1-cyclopropyl-1H-pyrazol-4-yl)tetrahydro-2H-pyran-4-yl-2-d)-4-(2,4-difluorophenyl)-6,7-dimethylpteridine] was tested. Which EC50 did it give?
Its EC50 is < 50 nM.

Cc1nc2nc([C@@H]3CCO[C@@H](c4cnn(C5CC5)c4)C3)cc(-c3ccc(Cl)cc3F)c2nc1C [Example 223, 8-(4-chloro-2-fluorophenyl)-6-((2R,4R)-2-(1-cyclopropyl-1H-pyrazol-4-yl)tetrahydro-2H-pyran-4-yl)-2,3-dimethylpyrido[2,3-b]pyrazine] was tested. Which EC50 did it give?
The EC50 was 50 to 500 nM.

How did the EC50 turn out when COc1ccc([C@@H]2C[C@H](c3nc(C45CC(C(F)(F)F)(C4)C5)c4nc(C)c(C)nc4n3)CCO2)cn1 [Example 142, 2-((2S,4R)-2-(6-methoxypyridin-3-yl)tetrahydro-2H-pyran-4-yl)-6,7-dimethyl-4-(3-(trifluoromethyl)bicyclo[1.1.1]pentan-1-yl)pteridine] was run?
Its EC50 is 50 to 500 nM.

same assay, conditions: HEK293 cells expressing human TREM2 and DAP12, Table D-2

Cc1nc2cc([C@H]3CCO[C@@H](c4cnn(C5CC5)c4)C3)nc(-c3ccc(F)cc3F)c2nc1COC(F)F [Example I-1490, 7-((2R,4S)-2-(1-cyclopropyl-1H-pyrazol-4-yl)tetrahydro-2H-pyran-4-yl)-3-((difluoromethoxy)methyl)-5-(2,4-difluorophenyl)-2-methylpyrido[3,4-b]pyrazine] was tested. Which EC50 did it give?
The EC50 was 3000 to 100000 nM.

For CCCc1ccc(-c2nc([C@H]3CCO[C@@H](c4cnn(C5CC5)c4)C3)nc3nc(C)c(C)nc23)c(F)c1 [Example I-1197], which EC50 is on record?
The EC50 was 50 to 500 nM.

With COC1(c2nc(-c3ccc(Cl)cc3F)c3nc(C)c(C)nc3n2)CCO[C@@H](c2cnn(C3CC3)c2)C1 (stereo partly drawn) [Example I-1210, 4-(4-chloro-2-fluorophenyl)-2-((2R)-2-(1-cyclopropyl-1H-pyrazol-4-yl)-4-methoxytetrahydro-2H-pyran-4-yl)-6,7-dimethylpteridine] as the compound, how does the EC50 read?
The EC50 was 500 to 3000 nM.

How did the EC50 turn out when Cc1nc2nc(C3CCO[C@@H](c4cnn(C5CC5)c4)C3)nc(C3CC4(C3)CC(F)(F)C4)c2nc1C (stereo partly drawn) [Example I-1582, 2-[(2R)-2-(1-cyclopropylpyrazol-4-yl)tetrahydropyran-4-yl]-4-(2,2-difluorospiro[3.3]heptan-6-yl)-6,7-dimethyl-pteridine] was run?
Its EC50 is < 50 nM.

Cc1nc2cc([C@H]3CCO[C@@H](c4cnn(C5CC5)c4)C3)nc(-c3ccc(C(F)(F)F)cc3F)c2nc1C(F)(F)F [Example I-1562] was tested. Which EC50 did it give?
The EC50 was 50 to 500 nM.

For Cc1nc2nc(N3C[C@@H](C)O[C@@H](c4cnn(C5CC5)c4)C3)cc(C#CC3CC3)c2nc1C [Example I-1104, (2S,6R)-4-[8-(2-cyclopropylethynyl)-2,3-dimethyl-pyrido[2,3-b]pyrazin-6-yl]-2-(1-cyclopropylpyrazol-4-yl)-6-methyl-morpholine], which EC50 is on record?
Its EC50 is 500 to 3000 nM.

Which EC50 does the source give for Cc1nc2c(-c3ccc(Cl)cc3F)nc([C@H]3CCO[C@@H](c4cnn(C5CC5)c4)C3)nc2nc1CC(F)F [Example I-1477, 4-(4-chloro-2-fluoro-phenyl)-2-[(2R,4S)-2-(1-cyclopropylpyrazol-4-yl)tetrahydropyran-4-yl]-7-(2,2-difluoroethyl)-6-methyl-pteridine] here?
Its EC50 is 50 to 500 nM.

Which EC50 does the source give for Fc1cc(Cl)ccc1-c1nc([C@@H]2CCO[C@H](c3cnn(C4CC4)c3)C2)nc2nc(CC(F)(F)F)cnc12 [Example I-1338, 4-(4-chloro-2-fluoro-phenyl)-2-[(2S,4R)-2-(1-cyclopropylpyrazol-4-yl)tetrahydropyran-4-yl]-7-(2,2,2-trifluoroethyl)pteridine] here?
The EC50 was 50 to 500 nM.

For Cc1nc2cc([C@H]3CCO[C@@H](c4cnn(C5CC5)c4)C3)nc(-c3ccc(F)cc3F)c2nc1CF [Example I-1456, 7-((2R,4S)-2-(1-cyclopropyl-1H-pyrazol-4-yl)tetrahydro-2H-pyran-4-yl)-5-(2,4-difluorophenyl)-3-(fluoromethyl)-2-methylpyrido[3,4-b]pyrazine], which EC50 is on record?
The EC50 was < 50 nM.

Cc1nc2nc(N3C[C@@H](C)O[C@@H](c4cnn(C5CC5)c4)C3)nc([C@H]3C[C@H](C(F)(F)F)C3)c2nc1C [Example I-1365, (2S,6R)-2-(1-cyclopropylpyrazol-4-yl)-4-[6,7-dimethyl-4-[3-(trifluoromethyl)cyclobutyl]pteridin-2-yl]-6-methyl-morpholine] was tested. Which EC50 did it give?
Its EC50 is < 50 nM.

How did the EC50 turn out when Cc1cc2c(-c3ccc(F)cc3F)nc(N3C[C@@H](C)O[C@@H](c4cn(C)cn4)C3)nc2nc1C [Example I-1260, (2R,6R)-4-[4-(2,4-difluorophenyl)-6,7-dimethyl-pyrido[2,3-d]pyrimidin-2-yl]-2-methyl-6-(1-methylimidazol-4-yl)morpholine; formic acid] was run?
The EC50 was 500 to 3000 nM.
